Source: patent US20250163066A1, “PROTACs of MALT1” (TEGID THERAPEUTICS, INC., priority 2022, published 2025)

Assays:
[1] = system: IL-2 MALT1-dependent release in Jurkat cells; assay: cells; assay type: cell-based; conditions: Homo sapiens; for EC50: Jurkat cells stimulated with antiCD3/antiCD28 for 24 h, IL-2 ELISA, read-out: EC50, IL-2 MALT1-dependent release inhibition; for CC50: Jurkat, 24 h, read-out: CC50 (IL-2 MALT1-dependent release inhibition)
Method: Jurkat cells (ATCC, USA) (100,000 cells/well in a 96 well flat-bottom plate (Greiner, #655061) were cultured in RPMI 1640 supplemented with 10% FBS at 37° C., 5% CO2 in a humidified cell culture incubator for 0.5-1 h. Then 10 μl/well 15× compound (or DMSO) was added in duplicates. Cells were incubated with compound in a humidified cell culture incubator for 0.5-1 h. After the incubation, 10 μl/well of 15× human antiCD3 HIT3a antibody (BioLegend) together with 10 μl/well of 15× human antiCD28 antibody (Invitrogen) were added to stimulate Jurkat cells for 24 h. After 24 h of stimulation, supernatants were collected and IL-2 levels in supernatants were assessed using IL-2 ELISA kit (Vector-Best, Russia).

[2] = biological target: MALT1 (Homo sapiens (Human), UniProt Q9UDY8); assay: MALT1 enzymatic activity inhibition (fluorescence, Ac-LRSR-AMC substrate); assay type: biochemical; conditions: recombinant MALT1 1.5 ng/μl, Ac-LRSR-AMC 1 μM
Summary of the method: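 Recombinant human MALT1 (1.5 ng/μl final) preincubated 10 min at rt with compounds in 50 mM HEPES pH 7.2-7.4, 100 mM NaCl, 900 mM sodium citrate, 10 mM DTT; 1 μM Ac-LRSR-AMC then added. AMC fluorescence read at start and after 30 min 37 °C plus 30 min rt; difference gives signal, % inhibition fitted to IC50.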

Chain of MALT1 (Q9UDY8 whole entry): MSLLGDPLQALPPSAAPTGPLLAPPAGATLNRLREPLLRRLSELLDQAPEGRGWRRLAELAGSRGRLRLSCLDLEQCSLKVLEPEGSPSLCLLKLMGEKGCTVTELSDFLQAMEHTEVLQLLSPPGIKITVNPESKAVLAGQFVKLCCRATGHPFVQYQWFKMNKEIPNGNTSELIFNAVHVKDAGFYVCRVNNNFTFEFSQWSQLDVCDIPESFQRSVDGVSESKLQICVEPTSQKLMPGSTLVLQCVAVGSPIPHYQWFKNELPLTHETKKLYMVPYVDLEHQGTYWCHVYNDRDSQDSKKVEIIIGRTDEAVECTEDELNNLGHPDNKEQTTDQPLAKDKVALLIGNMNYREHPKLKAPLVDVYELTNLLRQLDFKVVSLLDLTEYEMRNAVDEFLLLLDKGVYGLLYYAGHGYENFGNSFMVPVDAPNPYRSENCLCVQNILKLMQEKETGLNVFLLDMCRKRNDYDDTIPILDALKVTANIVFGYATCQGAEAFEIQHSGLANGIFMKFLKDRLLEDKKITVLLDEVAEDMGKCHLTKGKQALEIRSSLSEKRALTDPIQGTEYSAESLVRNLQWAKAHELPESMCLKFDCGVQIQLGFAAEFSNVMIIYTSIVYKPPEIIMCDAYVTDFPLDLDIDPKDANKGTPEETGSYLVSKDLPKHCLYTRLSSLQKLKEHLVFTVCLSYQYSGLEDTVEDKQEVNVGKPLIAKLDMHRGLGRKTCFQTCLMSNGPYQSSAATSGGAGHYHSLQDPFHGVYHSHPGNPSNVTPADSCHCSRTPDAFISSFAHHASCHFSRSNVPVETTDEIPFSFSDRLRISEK

SMILES	EC50 [1]	EC50 [2]	CC50 [1]
Cc1cc(NC(=O)Nc2cnc3ccnn3c2C2CCCC2)cnc1-c1noc(CCCCN2CCN(c3cc4c(cc3F)C(=O)N(C3CCC(=O)NC3=O)C4=O)CC2)n1 (stereo not drawn) [Compound 57, 1-(7-cyclopentylpyrazolo[1,5-a]pyrimidin-6-yl)-3-[6-[5-[4-[4-[2-(2,6-dioxo-3-piperidyl)-6-fluoro-1,3-dioxo-isoindolin-5-yl]piperazin-1-yl]butyl]-1,2,4-oxadiazol-3-yl]-5-methyl-3-pyridyl]urea]	1000 to 5000 nM	≤ 0.2 µM	–
Cc1cc2ncc(NC(=O)Nc3cnc(-c4noc(CCCCCC(=O)N5CCN(c6ccc7c(c6)CN(C6CCC(=O)NC6=O)C7=O)CC5)n4)c(C)c3)c(C3CCCC3)n2n1 (stereo not drawn) [Compound 82, 1-(7-cyclopentyl-2-methyl-pyrazolo[1,5-a]pyrimidin-6-yl)-3-[6-[5-[6-[4-[2-(2,6-dioxo-3-piperidyl)-1-oxo-isoindolin-5-yl]piperazin-1-yl]-6-oxo-hexyl]-1,2,4-oxadiazol-3-yl]-5-methyl-3-pyridyl]urea]	1000 to 5000 nM	≤ 0.2 µM	–
Cc1cc(NC(=O)Nc2cnc3ccnn3c2C2CCCC2)cnc1-c1noc(CCCN2CCN(c3cc4c(cc3F)C(=O)N(C3CCC(=O)NC3=O)C4=O)CC2)n1 (stereo not drawn) [Compound 23, 1-(7-cyclopentylpyrazolo[1,5-a]pyrimidin-6-yl)-3-[6-[5-[3-[4-[2-(2,6-dioxo-3-piperidyl)-6-fluoro-1,3-dioxo-isoindolin-5-yl]piperazin-1-yl]propyl]-1,2,4-oxadiazol-3-yl]-5-methyl-3-pyridyl]urea]	< 500 nM	0.2 to 0.5 µM	–
Cc1cc(NC(=O)Nc2cnc3ccnn3c2C2CCCC2)cnc1-c1noc(CCCN2CCN(c3ccc4c(c3)CN(C3CCC(=O)NC3=O)C4=O)CC2)n1 (stereo not drawn) [Compound 18, 1-(7-cyclopentylpyrazolo[1,5-a]pyrimidin-6-yl)-3-[6-[5-[3-[4-[2-(2,6-dioxo-3-piperidyl)-1-oxo-isoindolin-5-yl]piperazin-1-yl]propyl]-1,2,4-oxadiazol-3-yl]-5-methyl-3-pyridyl]urea]	< 500 nM	≤ 0.2 µM	–
O=C1CCC(N2Cc3cc(N4CCN(CCCCCCc5nc(-c6ncc(NC(=O)Nc7cnc8ccnn8c7C7CCCCC7)cc6Cl)no5)CC4)ccc3C2=O)C(=O)N1 (stereo not drawn) [Compound 119, 1-[5-chloro-6-[5-[6-[4-[2-(2,6-dioxo-3-piperidyl)-1-oxo-isoindolin-5-yl]piperazin-1-yl]hexyl]-1,2,4-oxadiazol-3-yl]-3-pyridyl]-3-(7-cyclohexylpyrazolo[1,5-a]pyrimidin-6-yl)urea]	–	≤ 0.2 µM	< 500 nM
Cc1cc(NC(=O)Nc2cnc3ccnn3c2C2CCCC2)cnc1-c1noc(CC(C)(C)CC(=O)N2CCN(c3ccc4c(c3)CN(C3CCC(=O)NC3=O)C4=O)CC2)n1 (stereo not drawn) [Compound 10, 1-(7-cyclopentylpyrazolo[1,5-a]pyrimidin-6-yl)-3-[6-[5-[4-[4-[2-(2,6-dioxo-3-piperidyl)-1-oxo-isoindolin-5-yl]piperazin-1-yl]-2,2-dimethyl-4-oxo-butyl]-1,2,4-oxadiazol-3-yl]-5-methyl-3-pyridyl]urea]	500 to 1000 nM	0.2 to 0.5 µM	–
Cc1cc(NC(=O)Nc2cnc3ccnn3c2C2CCCC2)cnc1-c1noc(CCCCCN2CCN(c3cc4c(cc3F)C(=O)N(C3CCC(=O)NC3=O)C4=O)CC2)n1 (stereo not drawn) [Compound 55, 1-(7-cyclopentylpyrazolo[1,5-a]pyrimidin-6-yl)-3-[6-[5-[5-[4-[2-(2,6-dioxo-3-piperidyl)-6-fluoro-1,3-dioxo-isoindolin-5-yl]piperazin-1-yl]pentyl]-1,2,4-oxadiazol-3-yl]-5-methyl-3-pyridyl]urea]	500 to 1000 nM	≤ 0.2 µM	–
Cc1cc(NC(=O)Nc2cnc3ccnn3c2C2CCCCC2)cnc1-c1noc(CCCCCC(=O)N2CCN(c3ccc4c(c3)CN(C3CCC(=O)NC3=O)C4=O)CC2)n1 (stereo not drawn) [Compound 107, 1-(7-cyclohexylpyrazolo[1,5-a]pyrimidin-6-yl)-3-[6-[5-[6-[4-[2-(2,6-dioxo-3-piperidyl)-1-oxo-isoindolin-5-yl]piperazin-1-yl]-6-oxo-hexyl]-1,2,4-oxadiazol-3-yl]-5-methyl-3-pyridyl]urea]	1000 to 5000 nM	≤ 0.2 µM	–
Cc1cc(NC(=O)Nc2cnc3ccnn3c2C(C)C)cnc1-c1noc(CCCCCC(=O)N2CCN(c3ccc4c(c3)CN(C3CCC(=O)NC3=O)C4=O)CC2)n1 (stereo not drawn) [Compound 91, 1-[6-[5-[6-[4-[2-(2,6-dioxo-3-piperidyl)-1-oxo-isoindolin-5-yl]piperazin-1-yl]-6-oxo-hexyl]-1,2,4-oxadiazol-3-yl]-5-methyl-3-pyridyl]-3-(7-isopropylpyrazolo[1,5-a]pyrimidin-6-yl)urea]	500 to 1000 nM	≤ 0.2 µM	–
O=C1CCC(N2Cc3cc(N4CCN(C(=O)CCCCCc5nc(-c6ncc(NC(=O)Nc7cnc8ccnn8c7C7CCC7)cc6Cl)no5)CC4)ccc3C2=O)C(=O)N1 (stereo not drawn) [Compound 116, 1-[5-chloro-6-[5-[6-[4-[2-(2,6-dioxo-3-piperidyl)-1-oxo-isoindolin-5-yl]piperazin-1-yl]-6-oxo-hexyl]-1,2,4-oxadiazol-3-yl]-3-pyridyl]-3-(7-cyclobutylpyrazolo[1,5-a]pyrimidin-6-yl)urea]	–	≤ 0.2 µM	< 500 nM
O=C1CCC(N2Cc3cc(N4CCN(C(=O)CCCCCc5nnc(-c6ccc(NC(=O)Nc7cnc8ccnn8c7C7CCCC7)cn6)o5)CC4)ccc3C2=O)C(=O)N1 (stereo not drawn) [Compound 111, 1-(7-cyclopentylpyrazolo[1,5-a]pyrimidin-6-yl)-3-[6-[5-[6-[4-[2-(2,6-dioxo-3-piperidyl)-1-oxo-isoindolin-5-yl]piperazin-1-yl]-6-oxo-hexyl]-1,3,4-oxadiazol-2-yl]-3-pyridyl]urea]	–	1 to 5 µM	> 5000 nM
Cc1cc(NC(=O)Nc2cnc3ccnn3c2C2CCCCC2)cnc1-c1noc(CCCC(=O)Nc2ccc3c(c2)CN(C2CCC(=O)NC2=O)C3=O)n1 (stereo not drawn) [Compound 123, 4-[3-[5-[(7-cyclohexylpyrazolo[1,5-a]pyrimidin-6-yl)carbamoylamino]-3-methyl-2-pyridyl]-1,2,4-oxadiazol-5-yl]-N-[2-(2,6-dioxo-3-piperidyl)-1-oxo-isoindolin-5-yl]butanamide]	–	≤ 0.2 µM	< 500 nM
Cc1cc(NC(=O)Nc2cnc3ccnn3c2C2CCC2)cnc1-c1noc(CCCCC(=O)N2CCN(c3ccc4c(c3)CN(C3CCC(=O)NC3=O)C4=O)CC2)n1 (stereo not drawn) [Compound 112, 1-(7-cyclobutylpyrazolo[1,5-a]pyrimidin-6-yl)-3-[6-[5-[5-[4-[2-(2,6-dioxo-3-piperidyl)-1-oxo-isoindolin-5-yl]piperazin-1-yl]-5-oxo-pentyl]-1,2,4-oxadiazol-3-yl]-5-methyl-3-pyridyl]urea]	–	≤ 0.2 µM	> 5000 nM
O=C1CCC(N2Cc3cc(N4CCN(CCCCCc5nc(-c6ncc(NC(=O)Nc7cnc8ccnn8c7C7CCCC7)cc6Cl)no5)CC4)ccc3C2=O)C(=O)N1 (stereo not drawn) [Compound 79, 1-[5-chloro-6-[5-[5-[4-[2-(2,6-dioxo-3-piperidyl)-1-oxo-isoindolin-5-yl]piperazin-1-yl]pentyl]-1,2,4-oxadiazol-3-yl]-3-pyridyl]-3-(7-cyclopentylpyrazolo[1,5-a]pyrimidin-6-yl)urea]	< 500 nM	≤ 0.2 µM	–
Cc1cc(NC(=O)Nc2cnc3ccnn3c2C2CCCC2)cnc1-c1noc(CCC(=O)N2CCN(c3ccc4c(c3)CN(C3CCC(=O)NC3=O)C4=O)CC2)n1 (stereo not drawn) [Compound 13, 1-(7-cyclopentylpyrazolo[1,5-a]pyrimidin-6-yl)-3-[6-[5-[3-[4-[2-(2,6-dioxo-3-piperidyl)-1-oxo-isoindolin-5-yl]piperazin-1-yl]-3-oxo-propyl]-1,2,4-oxadiazol-3-yl]-5-methyl-3-pyridyl]urea]	> 5000 nM	≤ 0.2 µM	–
Cc1cc(NC(=O)Nc2cnc3ccnn3c2C2CCCCC2)cnc1-c1noc(CCCCC(=O)N2CCN(c3ccc4c(c3)CN(C3CCC(=O)NC3=O)C4=O)CC2)n1 (stereo not drawn) [Compound 124, 1-(7-cyclohexylpyrazolo[1,5-a]pyrimidin-6-yl)-3-[6-[5-[5-[4-[2-(2,6-dioxo-3-piperidyl)-1-oxo-isoindolin-5-yl]piperazin-1-yl]-5-oxo-pentyl]-1,2,4-oxadiazol-3-yl]-5-methyl-3-pyridyl]urea]	–	≤ 0.2 µM	1000 to 5000 nM
O=C1CCC(N2Cc3cc(N4CCN(C(=O)CCCCc5nc(-c6ncc(NC(=O)Nc7cnc8ccnn8c7C7CCCC7)cc6C(F)(F)F)no5)CC4)ccc3C2=O)C(=O)N1 (stereo not drawn) [Compound 96, 1-(7-cyclopentylpyrazolo[1,5-a]pyrimidin-6-yl)-3-[6-[5-[5-[4-[2-(2,6-dioxo-3-piperidyl)-1-oxo-isoindolin-5-yl]piperazin-1-yl]-5-oxo-pentyl]-1,2,4-oxadiazol-3-yl]-5-(trifluoromethyl)-3-pyridyl]urea]	< 500 nM	≤ 0.2 µM	–
Cc1cc(NC(=O)Nc2cnc3ccnn3c2C(C)C)cnc1-c1noc(CCCC(=O)N2CCN(c3ccc4c(c3)CN(C3CCC(=O)NC3=O)C4=O)CC2)n1 (stereo not drawn) [Compound 89, 1-[6-[5-[4-[4-[2-(2,6-dioxo-3-piperidyl)-1-oxo-isoindolin-5-yl]piperazin-1-yl]-4-oxo-butyl]-1,2,4-oxadiazol-3-yl]-5-methyl-3-pyridyl]-3-(7-isopropylpyrazolo[1,5-a]pyrimidin-6-yl)urea]	< 500 nM	≤ 0.2 µM	–
